Experimental data taken from PMC8222254, “Self-assembly of an anion receptor with metal-dependent kinase inhibition and potent in vitro anti-cancer properties” (Nature Communications, 2021).
Several values for one entry are separate records, joined by “and”; a condition that tells them apart may be missing. Equal values may be shown once.

How the values were obtained:
[1] = system: ARPE-19; test: Immunoblotting of whole cell protein lysates; format: cell-based, human; conditions: for levels of p53: ARPE19, 5 µM, 40 h
Method: (§1) ARPE-19 and HCT116 p53^+/+ cells were seeded at a density of 3 × 10^5 (ARPE-19) or 5 × 10^5 (HCT116 p53^+/+) in T25 flasks. 24 h after seeding, cells were treated with 10 µM of [L2Cu3]^6+, [L2Zn3]^6+, or vehicle control for 4 h (Fig. 8b) or 5 μM of [L2Cu3]^6+, [L2Zn3]^6+, or vehicle control for 40 h (Fig. 10). Cells were then harvested and lysed in RIPA buffer (Sigma) with the protein concentration of lysates determined by the BCA assay.
(§2) Protein lysates and recombinant proteins were resolved on 15% SDS polyacrylamide gels. Proteins were electroblotted onto nitrocellulose membrane by wet transfer in 1xTris Glycine buffer (Biorad) at 35 mA overnight at room temperature. After blocking of membranes, these were incubated with primary antibody overnight at 4 °C before addition of rabbit or mouse secondary antibody (HRP-conjugated; 1:5000, Dako P0448 or P0260) for 1 h at room temperature and development of blots by enhanced chemiluminescence. Primary antibodies were: anti-Src (total) (Cell Signalling Technology #2123 1:1000), anti-phosphorylated Src (Y527) (Cell Signalling Technology #21055 1:1000), anti-phosphorylated Src (Y416) (Cell Signalling Technology #69435 1:1000), anti-AMPKα (total) (Cell Signalling Technology #2532 1:1000), anti-phosphorylated AMPKα (T172) (Cell Signalling Technology #2535 1:1000), anti-AMPKβ1 (total) (Cell Signalling Technology #4150 1:1000), anti-phosphorylated AMPKβ1 (S108) (abcam ab156890 1:500), anti-phospho-Tyr (pan) (Cell Signalling Technology #8954 1:2000), anti-p53 (Santa Cruz, DO-1 clone, 1:1000,), anti-phosphorylated LDH-A (Y10) (Cell Signalling Technology #8176 1:1000), anti-LDH-A/B (total) (abcam ab134187 1:5000), anti-β-actin (Merck MAB1501, 1:40,000). Quantification of signals was performed by densitometry using Image J software. Uncropped and unprocessed scans are provided in the Source Data file.

[2] = system: HCT116 p53+/+; test: Immunoblotting of whole cell protein lysates; format: cell-based, human
Method: as §1, §2

[3] = target: T1, recombinant human AMPK (α1β2γ1) (Homo sapiens, UniProt Q13131); test: Substrate competition assay (ADP-Glo Kinase Assay); format: biochemical
T1 construct: purchased Promega
T1 sequence (Q13131 whole entry): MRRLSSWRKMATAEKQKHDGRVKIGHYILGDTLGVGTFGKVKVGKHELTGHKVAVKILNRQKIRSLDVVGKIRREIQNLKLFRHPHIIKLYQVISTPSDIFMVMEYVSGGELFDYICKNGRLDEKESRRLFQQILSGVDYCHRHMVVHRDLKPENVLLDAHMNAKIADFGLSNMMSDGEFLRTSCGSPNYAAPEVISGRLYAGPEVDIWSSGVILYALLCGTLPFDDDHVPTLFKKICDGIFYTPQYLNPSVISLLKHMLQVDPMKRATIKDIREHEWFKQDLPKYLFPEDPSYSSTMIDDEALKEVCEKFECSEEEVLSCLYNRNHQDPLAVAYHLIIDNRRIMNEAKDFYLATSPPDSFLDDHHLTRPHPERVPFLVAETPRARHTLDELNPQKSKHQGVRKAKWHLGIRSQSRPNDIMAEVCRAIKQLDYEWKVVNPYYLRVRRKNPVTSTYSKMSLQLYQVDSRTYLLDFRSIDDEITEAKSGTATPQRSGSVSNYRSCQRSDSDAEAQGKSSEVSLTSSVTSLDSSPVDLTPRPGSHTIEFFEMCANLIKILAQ
T1 sequence (O43741 whole entry partner): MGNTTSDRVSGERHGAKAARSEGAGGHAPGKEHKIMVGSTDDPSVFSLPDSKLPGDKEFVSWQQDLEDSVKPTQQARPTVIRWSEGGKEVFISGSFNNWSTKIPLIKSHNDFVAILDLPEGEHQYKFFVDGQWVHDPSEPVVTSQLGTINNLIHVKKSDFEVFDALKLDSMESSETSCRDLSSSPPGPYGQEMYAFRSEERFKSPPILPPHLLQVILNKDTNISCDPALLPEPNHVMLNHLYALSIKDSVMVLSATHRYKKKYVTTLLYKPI
T1 sequence (P54619 whole entry partner): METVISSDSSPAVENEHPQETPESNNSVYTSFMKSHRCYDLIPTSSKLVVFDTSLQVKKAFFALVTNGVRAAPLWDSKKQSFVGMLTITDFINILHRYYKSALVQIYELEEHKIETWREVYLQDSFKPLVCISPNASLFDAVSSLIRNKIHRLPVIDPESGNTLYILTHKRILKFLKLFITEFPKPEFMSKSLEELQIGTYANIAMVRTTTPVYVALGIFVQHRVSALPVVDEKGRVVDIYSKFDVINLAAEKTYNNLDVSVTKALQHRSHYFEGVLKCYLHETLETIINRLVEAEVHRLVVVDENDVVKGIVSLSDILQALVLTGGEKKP
Method: (§3) ATP competition kinase assays were performed by the MRC Protein Phosphorylation and Ubiquitination Unit International Centre for Kinase Profiling (University of Dundee). Inhibition of recombinant human AMPK (α1β2γ1) by 10μM [L2Cu3]^6+ or [L2Zn3]^6+ was evaluated at five different ATP concentrations (0.5, 2, 20, 200 and 500 µM ATP). Substrate competition assays were performed using the ADP-Glo Kinase Assay (Promega) and recombinant human AMPK (α1β2γ1) (Promega) with concentrations of the provided AMPK substrate (SAMStide substrate, Promega) ranging from 1 to 15 mg/ml. Following pre-incubation of substrate with kinase for 5 min 10 µM [L2Cu3]^6+, [L2Zn3]^6+ or solvent control and 50 µM ATP was added to start the kinase reaction. For determination of the effects of AMP on AMPK inhibition by [L2Zn3]^6+, the ADP-Glo Kinase Assay (Promega) was performed in presence of varying of AMP (0, 80, 160 μM).

[4] = target: T1, recombinant human AMPK (α1β2γ1); test: Substrate competition assay (ADP-Glo Kinase Assay); format: biochemical; remark: listed apart in the source
[5] = target: T1, recombinant human AMPK (α1β2γ1); test: ATP competition kinase assay; format: biochemical
Method: as §3

[6] = target: 140 purified human kinases (Rattus norvegicus, UniProt Q62868); test: Kinase inhibition screen, cell-free 33P ATP assay at 10 μM; format: biochemical
140 purified human kinases, sequence (Q62868 whole entry): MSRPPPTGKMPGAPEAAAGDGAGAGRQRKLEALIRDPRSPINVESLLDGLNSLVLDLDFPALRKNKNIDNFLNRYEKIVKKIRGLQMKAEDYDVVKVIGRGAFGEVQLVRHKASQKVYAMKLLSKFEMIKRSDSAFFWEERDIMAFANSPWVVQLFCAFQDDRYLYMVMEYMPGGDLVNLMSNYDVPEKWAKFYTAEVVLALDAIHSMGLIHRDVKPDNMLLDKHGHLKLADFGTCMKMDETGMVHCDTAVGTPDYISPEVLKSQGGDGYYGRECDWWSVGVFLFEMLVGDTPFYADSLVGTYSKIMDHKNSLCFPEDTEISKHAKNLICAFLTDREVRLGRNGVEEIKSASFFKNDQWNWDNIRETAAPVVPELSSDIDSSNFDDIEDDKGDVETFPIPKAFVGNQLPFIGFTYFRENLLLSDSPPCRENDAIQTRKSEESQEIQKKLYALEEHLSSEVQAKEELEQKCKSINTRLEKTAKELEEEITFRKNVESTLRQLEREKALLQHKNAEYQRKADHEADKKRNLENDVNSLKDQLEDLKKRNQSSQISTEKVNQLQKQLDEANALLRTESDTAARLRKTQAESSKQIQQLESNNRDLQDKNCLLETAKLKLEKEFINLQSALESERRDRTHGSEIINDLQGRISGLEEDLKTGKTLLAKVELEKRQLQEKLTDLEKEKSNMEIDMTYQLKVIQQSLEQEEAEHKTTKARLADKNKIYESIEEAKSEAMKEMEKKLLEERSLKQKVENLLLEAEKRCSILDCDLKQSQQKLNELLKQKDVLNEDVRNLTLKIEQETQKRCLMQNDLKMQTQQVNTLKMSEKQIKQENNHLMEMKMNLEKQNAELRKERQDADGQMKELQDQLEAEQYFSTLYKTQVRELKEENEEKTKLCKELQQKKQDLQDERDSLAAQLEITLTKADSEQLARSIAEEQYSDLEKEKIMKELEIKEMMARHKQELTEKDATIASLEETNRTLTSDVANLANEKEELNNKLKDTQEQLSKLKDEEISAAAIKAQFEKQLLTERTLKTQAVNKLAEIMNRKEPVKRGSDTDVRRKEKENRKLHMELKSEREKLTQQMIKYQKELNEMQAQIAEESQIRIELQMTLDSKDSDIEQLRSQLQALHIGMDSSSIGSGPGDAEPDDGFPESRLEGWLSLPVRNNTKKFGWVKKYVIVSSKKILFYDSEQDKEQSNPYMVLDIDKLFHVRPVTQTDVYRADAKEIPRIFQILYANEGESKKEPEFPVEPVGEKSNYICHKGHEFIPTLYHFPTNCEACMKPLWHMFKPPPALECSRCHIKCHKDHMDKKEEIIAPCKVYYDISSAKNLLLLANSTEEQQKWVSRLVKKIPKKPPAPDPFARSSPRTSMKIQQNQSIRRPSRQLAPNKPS
Summary of the method: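 Each complex tested in duplicate at 10 μM; cell-free radiometric assay using ^33P ATP on purified enzymes. Hits mapped by HGNC symbol onto the kinome tree.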

[7] = system: HCT116 p53+/+; test: Confocal imaging of autophagic cells (CYTO-ID); format: cell-based, human; conditions: 3.125 µM, 40 h
Method: Cells were seeded in Lumox chamber slides (8-well, Sarstedt) at a density of 1.25 × 10^4 cells/well (ARPE-19) or 5.625 × 10^4 cells/well (HCT116 p53^−/− and HCT116 p53^+/+). 24 h after seeding, cells were treated with 3.125 μM of [L2Cu3]^6+, [L2Zn3]^6+, [L2Mn3]^6+, or vehicle control for 40 h before removal and addition of CYTO-ID Green autophagic dye (1:500 dilution, Enzo Life Sciences) and Hoechst 3342 nuclear counter stain for 30 min at 37 °C. Media was then replaced before imaging using a Zeiss LSM880 confocal laser scanning microscope.

## [Cu+2].[Cu+2].[Cu+2].c1ccc(-c2csc(NCCN(CCNc3nc(-c4ccccn4)cs3)CCNc3nc(-c4ccccn4)cs3)n2)nc1.c1ccc(-c2csc(NCCN(CCNc3nc(-c4ccccn4)cs3)CCNc3nc(-c4ccccn4)cs3)n2)nc1 [[L2Cu3]6+]
[1]
  levels of p53: decreased
[2]; HCT116, 5 µM, 40 h
  increase of p53 levels: ~ 1.7 fold
[3]; Substrate 1 mg/ml
  %AMPK Activity Remaining, Mean: 34.60%
  %AMPK Activity Remaining, individual replicates: 16.20% and 28.30% and 59.40%
[3]; Substrate 2.5 mg/ml
  %AMPK Activity Remaining, Mean: 20.90%
  %AMPK Activity Remaining, individual replicates: 15.60% and 15.00% and 32.00%
[3]; Substrate 5 mg/ml
  %AMPK Activity Remaining, Mean: 17.00%
  %AMPK Activity Remaining, individual replicates: 18.00% and 15.40% and 17.70%
[3]; Substrate 10 mg/ml
  %AMPK Activity Remaining, Mean: 25.40%
  %AMPK Activity Remaining, individual replicates: 26.20% and 21.60% and 28.40%
[3]; Substrate 15 mg/ml
  %AMPK Activity Remaining, Mean: 17.20%
  %AMPK Activity Remaining, individual replicates: 13.60% and 12.90% and 25.20%
[4]; Substrate 0.5 mg/ml as printed
  %AMPK Activity Remaining, Mean (data for the bars): 34.60%
[4]; Substrate 20 mg/ml as printed
  %AMPK Activity Remaining, Mean (data for the bars): 17.00%
[4]; Substrate 200 mg/ml as printed
  %AMPK Activity Remaining, Mean (data for the bars): 25.40%
[4]; Substrate 500 mg/ml as printed
  %AMPK Activity Remaining, Mean (data for the bars): 17.20%
[5]; ATP conc 0.5 µM
  % Activity remaining compared to 100% DMSO controls, individual replicates: 12.56% and 14.65% and 16.05%
  Mean Activity (%) remaining compared to 100% DMSO controls: 14.42%
[5]; ATP conc 2 µM
  % Activity remaining compared to 100% DMSO controls, individual replicates: 15.11% and 18.68% and 17.31%
  Mean Activity (%) remaining compared to 100% DMSO controls: 17.03%
[5]; ATP conc 20 µM
  % Activity remaining compared to 100% DMSO controls, individual replicates: 12.85% and 11.15% and 12.56%
  Mean Activity (%) remaining compared to 100% DMSO controls: 12.19%
[5]; ATP conc 200 µM
  % Activity remaining compared to 100% DMSO controls, individual replicates: 10.11% and 10.01% and 10.69%
  Mean Activity (%) remaining compared to 100% DMSO controls: 10.27%
[5]; ATP conc 500 µM
  % Activity remaining compared to 100% DMSO controls, individual replicates: 20.03% and 18.99% and 20.22%
  Mean Activity (%) remaining compared to 100% DMSO controls: 19.74%
[6]; ROCK 2, Run 1
  % activity: 16.5%
[6]; ROCK 2, Run 2
  % activity: 22.5%

## [Mn+2].[Mn+2].[Mn+2].c1ccc(-c2csc(NCCN(CCNc3nc(-c4ccccn4)cs3)CCNc3nc(-c4ccccn4)cs3)n2)nc1.c1ccc(-c2csc(NCCN(CCNc3nc(-c4ccccn4)cs3)CCNc3nc(-c4ccccn4)cs3)n2)nc1 [[L2Mn3]6+]
[7]
  induction of autophagy (CYTO-ID): evident

## CC(=O)[O-].CC(=O)[O-].CC(=O)[O-].CC(=O)[O-].CC(=O)[O-].CC(=O)[O-].[Zn+2].[Zn+2].[Zn+2].c1ccc(-c2csc(NCCN(CCNc3nc(-c4ccccn4)cs3)CCNc3nc(-c4ccccn4)cs3)n2)nc1.c1ccc(-c2csc(NCCN(CCNc3nc(-c4ccccn4)cs3)CCNc3nc(-c4ccccn4)cs3)n2)nc1 [[L2Zn3]6+]
[1]
  levels of p53: decreased
[1]; ARPE-19, 10µM, 4h, n=1
  p-Y10 LDH-A: modestly decrease
[2]; HCT116, 5 µM, 40 h
  cellular levels of T172P of AMPKα relative to total AMPKα: increased
  increase of p53 levels: ~ 2.7 fold
[2]; HCT116, 5 µM, 40 h, pan phospho-tyrosine antibody
  decrease in total levels of Tyr-phosphorylated proteins: ~ 10%
[2]; HCT116 cancer cells, 10 µM, 4 h
  cellular phospho-Thr172 AMPKα levels: decreased
[3]; Substrate 1 mg/ml
  %AMPK Activity Remaining, Mean: 42.90%
  %AMPK Activity Remaining, individual replicates: 57.40% and 31.37% and 37.80% and 44.50%
[3]; Substrate 2.5 mg/ml
  %AMPK Activity Remaining, Mean: 28.10%
  %AMPK Activity Remaining, individual replicates: 30.60% and 40.90% and 18.40% and 22.50%
[3]; Substrate 5 mg/ml
  %AMPK Activity Remaining, Mean: 39.40%
  %AMPK Activity Remaining, individual replicates: 31.50% (2×) and 56.70% (2×) and 25.70% (2×) and 43.60% (2×)
[3]; Substrate 10 mg/ml
  %AMPK Activity Remaining, Mean: 43.70%
  %AMPK Activity Remaining, individual replicates: 40.20% and 42.80% and 35.20% and 56.50%
[3]; Substrate 15 mg/ml
  %AMPK Activity Remaining, Mean: 35.80%
  %AMPK Activity Remaining, individual replicates: 33.30% and 26.60% and 47.50%
[4]; Substrate 0.5 mg/ml as printed
  %AMPK Activity Remaining, Mean (data for the bars): 42.90%
[4]; Substrate 20 mg/ml as printed
  %AMPK Activity Remaining, Mean (data for the bars): 39.40%
[4]; Substrate 200 mg/ml as printed
  %AMPK Activity Remaining, Mean (data for the bars): 43.70%
[4]; Substrate 500 mg/ml as printed
  %AMPK Activity Remaining, Mean (data for the bars): 35.80%
[7]
  induction of autophagy (CYTO-ID): barely detectable
[5]; ATP conc 0.5 µM
  % Activity remaining compared to 100% DMSO controls, individual replicates: 17.76% and 11.76% and 14.76%
  Mean Activity (%) remaining compared to 100% DMSO controls: 14.76%
[5]; ATP conc 2 µM
  % Activity remaining compared to 100% DMSO controls, individual replicates: 15.06% and 12.57% and 9.46%
  Mean Activity (%) remaining compared to 100% DMSO controls: 12.36%
[5]; ATP conc 20 µM
  % Activity remaining compared to 100% DMSO controls, individual replicates: 16.58% and 14.33% and 12.68%
  Mean Activity (%) remaining compared to 100% DMSO controls: 14.53%
[5]; ATP conc 200 µM
  % Activity remaining compared to 100% DMSO controls, individual replicates: 16.91% and 18.22% and 15.98%
  Mean Activity (%) remaining compared to 100% DMSO controls: 17.04%
[5]; ATP conc 500 µM
  % Activity remaining compared to 100% DMSO controls, individual replicates: 15.73% and 11.81% and 15.83%
  Mean Activity (%) remaining compared to 100% DMSO controls: 14.46%
